In patent publication US8952024B2, “Herbicidal pyrimidone derivatives” (E I du Pont de Nemours and Company, priority 2009, dated 2015):

Columns and labels:
Assay type in all cases: in vivo
corn (Zea mays) = assay: Test B pre-/postemergence plant response
Text: (§1) Seeds of plant species selected from blackgrass (Alopecurus myosuroides), downy bromegrass (Bromus tectorum), green foxtail (Setaria viridis), Italian ryegrass (Lolium multiflorum), wheat (Triticum aestivum), wild oat (Avena fatua), deadnettle (henbit deadnettle, Lamium amplexicaule), galium (catchweed bedstraw, Galium aparine), bermudagrass (Cynodon dactylon), Surinam grass (Brachiaria decumbens), cocklebur (Xanthium strumarium), corn (Zea mays), large crabgrass (Digitaria sanguinalis), woolly cupgrass (Eriochloa villosa), giant foxtail (Setaria faberii), goosegrass (Eleusine indica), johnsongrass (Sorghum halepense), kochia (Kochia scoparia), lambsquarters (Chenopodium album), morningglory (Ipomoea coccinea), nightshade (eastern black nightshade, Solanum ptycanthum), yellow nutsedge (Cyperus esculentus), pigweed (Amaranthus retroflexus), ragweed (common ragweed, Ambrosia elatior), Russian thistle (Salsola kali), soybean (Glycine max), sunflower (common oilseed sunflower, Helianthus annuus) and velvetleaf (Abutilon theophrasti) were planted into a blend of loam soil and sand and treated preemergence with test compounds formulated in a non-phytotoxic solvent mixture which included a surfactant.
(§2) At the same time, plants selected from these crop and weed species and also winter barley (Hordeum vulgare), canarygrass (Phalaris minor), chickweed (Stellaria media) and windgrass (Apera spica-venti) were planted in pots containing Redi-Earth® planting medium (Scotts Company, 14111 Scottslawn Road, Marysville, Ohio 43041) comprising spaghnum peat moss, vermiculite, wetting agent and starter nutrients and treated with postemergence applications of some of the test chemicals formulated in the same manner. Plants ranged in height from 2 to 18 cm (1- to 4-leaf stage) for postemergence treatments.
(§3) Treated plants and controls were maintained in a greenhouse for 13 to 15 days, after which time all treated plants were visually evaluated and compared to controls. Plant response ratings, summarized in Table B, are based on a scale of 0 to 100 where 0 is no effect and 100 is complete control. A dash (-) response means no test result.

[1] = tested on: blackgrass (Alopecurus myosuroides); assay: Test B pre-/postemergence plant response
Text: as §1, §2, §3

wild oat (Avena fatua) = assay: Test B pre-/postemergence plant response
Text: as §1, §2, §3

[2] = tested on: downy bromegrass (Bromus tectorum); assay: Test B pre-/postemergence plant response
Text: as §1, §2, §3

[3] = tested on: Surinam grass (Brachiaria decumbens); assay: Test B pre-/postemergence plant response
Text: as §1, §2, §3

[4] = tested on: pigweed (Amaranthus retroflexus); assay: Test B pre-/postemergence plant response
Text: as §1, §2, §3

[5] = tested on: Italian ryegrass (Lolium multiflorum); assay: Test B pre-/postemergence plant response
Text: as §1, §2, §3

[6] = tested on: morningglory (Ipomoea coccinea); assay: Test B pre-/postemergence plant response
Text: as §1, §2, §3

[7] = tested on: giant foxtail (Setaria faberii); assay: Test B pre-/postemergence plant response
Text: as §1, §2, §3

[8] = tested on: canarygrass (Phalaris minor); assay: Test B postemergence plant response; conditions: Postemergence
Summary of the method: (§4)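 Visual ratings from 0 (no effect) to 100 (complete control), made against controls 13–15 days after treatment, kept in a greenhouse. Compounds were applied postemergence to potted plants at the 1- to 4-leaf stage (2–18 cm).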

[9] = tested on: windgrass (Apera spica-venti); assay: Test B postemergence plant response; conditions: Postemergence
Summary of the method: as §4

[10] = tested on: chickweed (Stellaria media); assay: Test B postemergence plant response; conditions: Postemergence
Summary of the method: as §4

[11] = Postemergence, 31 g ai/ha, 0 to 100 scale (0 no effect, 100 complete control)
[12] = Postemergence, 62 g ai/ha, scale 0 to 100 (0 no effect, 100 complete control)
[13] = Postemergence, 125 g ai/ha, scale 0 (no effect) to 100 (complete control), 13 to 15 days
[14] = Postemergence, 250 g ai/ha, scale 0 to 100 (0 no effect, 100 complete control), 13 to 15 days
[15] = 31 g ai/ha, 0 to 100 scale (0 no effect, 100 complete control)
[16] = 62 g ai/ha, scale 0 to 100 (0 no effect, 100 complete control)
[17] = 125 g ai/ha, scale 0 (no effect) to 100 (complete control), 13 to 15 days
[18] = 250 g ai/ha, scale 0 to 100 (0 no effect, 100 complete control), 13 to 15 days
[19] = Preemergence, 31 g ai/ha, scale 0 to 100 (0 no effect, 100 complete control)
[20] = Preemergence, 62 g ai/ha, scale 0 to 100 (0 no effect, 100 complete control)
[21] = Preemergence, 125 g ai/ha, scale 0 to 100, 0 no effect, 100 complete control
[22] = Preemergence, 250 g ai/ha, 0 to 100 scale

COCCCn1c(-c2cccc(F)c2)ncc(C(=O)C2=C(O)C3CCC(C3)C2=O)c1=O (stereo not shown) [Compound 238]
Plant response rating, Corn (corn (Zea mays); [11]): 80
Plant response rating, Corn (corn (Zea mays); [12]): 80
Plant response rating, Corn (corn (Zea mays); [13]): 95
Plant response rating, Corn (corn (Zea mays); [14]): 95
Plant response rating, Blackgrass [1, 11]: 40
Plant response rating, Blackgrass [1, 12]: 60
Plant response rating, Blackgrass [1, 13]: 60
Plant response rating, Blackgrass [1, 14]: 70
Plant response rating, Oat, Wild (wild oat (Avena fatua); [11]): 30
Plant response rating, Oat, Wild (wild oat (Avena fatua); [12]): 35
Plant response rating, Oat, Wild (wild oat (Avena fatua); [13]): 50
Plant response rating, Oat, Wild (wild oat (Avena fatua); [14]): 60
Plant response rating, Bromegrass, Downy [2, 11]: 10
Plant response rating, Bromegrass, Downy [2, 12]: 40
Plant response rating, Bromegrass, Downy [2, 13]: 50
Plant response rating, Bromegrass, Downy [2, 14]: 85
Plant response rating, Surinam Grass [3, 11]: 95
Plant response rating, Surinam Grass [3, 12]: 100
Plant response rating, Surinam Grass [3, 13]: 100
Plant response rating, Surinam Grass [3, 14]: 100
Plant response rating, Pigweed [4, 11]: 100
Plant response rating, Pigweed [4, 12]: 100
Plant response rating, Pigweed [4, 13]: 100
Plant response rating, Pigweed [4, 14]: 100
Plant response rating, Ryegrass, Italian [5, 11]: 20
Plant response rating, Ryegrass, Italian [5, 12]: 25
Plant response rating, Ryegrass, Italian [5, 13]: 25
Plant response rating, Ryegrass, Italian [5, 14]: 70
Plant response rating, Morningglory [6, 13]: 100
Plant response rating, Morningglory [6, 14]: 100
Plant response rating, Foxtail, Giant [7, 11]: 100
Plant response rating, Foxtail, Giant [7, 12]: 100
Plant response rating, Foxtail, Giant [7, 13]: 100
Plant response rating, Foxtail, Giant [7, 14]: 100
Plant response rating, Canarygrass [8, 15]: 20
Plant response rating, Canarygrass [8, 16]: 25
Plant response rating, Canarygrass [8, 17]: 30
Plant response rating, Canarygrass [8, 18]: 30
Plant response rating, Windgrass [9, 15]: 45
Plant response rating, Windgrass [9, 16]: 70
Plant response rating, Windgrass [9, 17]: 85
Plant response rating, Windgrass [9, 18]: 95
Plant response rating, Chickweed [10, 15]: 80
Plant response rating, Chickweed [10, 16]: 90
Plant response rating, Chickweed [10, 17]: 100
Plant response rating, Chickweed [10, 18]: 100

CCc1ccccc1-n1c(-c2ccccc2)ncc(C(=O)C2=C(O)CCCC2=O)c1=O [Compound 255]
Plant response rating, Corn (corn (Zea mays); [11]): 60
Plant response rating, Corn (corn (Zea mays); [12]): 75
Plant response rating, Corn (corn (Zea mays); [13]): 85
Plant response rating, Corn (corn (Zea mays); [14]): 85
Plant response rating, Corn (corn (Zea mays); [19]): 0
Plant response rating, Corn (corn (Zea mays); [20]): 0
Plant response rating, Corn (corn (Zea mays); [21]): 0
Corn plant response rating (corn (Zea mays); [22]): 0
Plant response rating, Blackgrass [1, 11]: 5
Plant response rating, Blackgrass [1, 12]: 5
Plant response rating, Blackgrass [1, 13]: 10
Plant response rating, Blackgrass [1, 14]: 60
Plant response rating, Blackgrass [1, 19]: 0
Plant response rating, Blackgrass [1, 20]: 20
Plant response rating, Blackgrass [1, 21]: 40
Blackgrass plant response rating [1, 22]: 60
Plant response rating, Oat, Wild (wild oat (Avena fatua); [11]): 65
Plant response rating, Oat, Wild (wild oat (Avena fatua); [12]): 80
Plant response rating, Oat, Wild (wild oat (Avena fatua); [13]): 85
Plant response rating, Oat, Wild (wild oat (Avena fatua); [14]): 90
Plant response rating, Oat, Wild (wild oat (Avena fatua); [19]): 0
Plant response rating, Oat, Wild (wild oat (Avena fatua); [20]): 0
Plant response rating, Oat, Wild (wild oat (Avena fatua); [21]): 60
Oat, Wild plant response rating (wild oat (Avena fatua); [22]): 90
Plant response rating, Bromegrass, Downy [2, 11]: 50
Plant response rating, Bromegrass, Downy [2, 12]: 60
Plant response rating, Bromegrass, Downy [2, 13]: 80
Plant response rating, Bromegrass, Downy [2, 14]: 85
Plant response rating, Bromegrass, Downy [2, 19]: 0
Plant response rating, Bromegrass, Downy [2, 20]: 0
Plant response rating, Bromegrass, Downy [2, 21]: 0
Bromegrass, Downy plant response rating [2, 22]: 40
Plant response rating, Surinam Grass [3, 11]: 80
Plant response rating, Surinam Grass [3, 12]: 80
Plant response rating, Surinam Grass [3, 13]: 90
Plant response rating, Surinam Grass [3, 14]: 90
Plant response rating, Surinam Grass [3, 19]: 65
Plant response rating, Surinam Grass [3, 20]: 85
Plant response rating, Surinam Grass [3, 21]: 95
Surinam Grass plant response rating [3, 22]: 100
Plant response rating, Pigweed [4, 11]: 80
Plant response rating, Pigweed [4, 12]: 98
Plant response rating, Pigweed [4, 13]: 98
Plant response rating, Pigweed [4, 14]: 100
Plant response rating, Pigweed [4, 19]: 100
Plant response rating, Pigweed [4, 20]: 100
Plant response rating, Pigweed [4, 21]: 100
Pigweed plant response rating [4, 22]: 100
Plant response rating, Ryegrass, Italian [5, 11]: 10
Plant response rating, Ryegrass, Italian [5, 12]: 30
Plant response rating, Ryegrass, Italian [5, 13]: 30
Plant response rating, Ryegrass, Italian [5, 14]: 80
Plant response rating, Ryegrass, Italian [5, 19]: 0
Plant response rating, Ryegrass, Italian [5, 20]: 0
Plant response rating, Ryegrass, Italian [5, 21]: 10
Ryegrass, Italian plant response rating [5, 22]: 30
Plant response rating, Morningglory [6, 11]: 75
Plant response rating, Morningglory [6, 12]: 85
Plant response rating, Morningglory [6, 13]: 85
Plant response rating, Morningglory [6, 14]: 100
Plant response rating, Morningglory [6, 19]: 40
Plant response rating, Morningglory [6, 20]: 55
Plant response rating, Morningglory [6, 21]: 65
Morningglory plant response rating [6, 22]: 90
Plant response rating, Foxtail, Giant [7, 11]: 95
Plant response rating, Foxtail, Giant [7, 12]: 98
Plant response rating, Foxtail, Giant [7, 13]: 98
Plant response rating, Foxtail, Giant [7, 14]: 100
Plant response rating, Foxtail, Giant [7, 19]: 15
Plant response rating, Foxtail, Giant [7, 20]: 45
Plant response rating, Foxtail, Giant [7, 21]: 55
Foxtail, Giant plant response rating [7, 22]: 98
Plant response rating, Canarygrass [8, 15]: 50
Plant response rating, Canarygrass [8, 16]: 50
Plant response rating, Canarygrass [8, 17]: 50
Plant response rating, Canarygrass [8, 18]: 60
Plant response rating, Windgrass [9, 15]: 50
Plant response rating, Windgrass [9, 16]: 80
Plant response rating, Windgrass [9, 17]: 80
Plant response rating, Windgrass [9, 18]: 95
Plant response rating, Chickweed [10, 15]: 95
Plant response rating, Chickweed [10, 16]: 98
Plant response rating, Chickweed [10, 17]: 100
Plant response rating, Chickweed [10, 18]: 100

CCCCn1c(-c2cccc(F)c2)ncc(C(=O)C2=C(O)C3CCC(C3)C2=O)c1=O (stereo not shown) [Compound 237]
Plant response rating, Corn (corn (Zea mays); [11]): 85
Plant response rating, Corn (corn (Zea mays); [12]): 98
Plant response rating, Corn (corn (Zea mays); [13]): 100
Plant response rating, Corn (corn (Zea mays); [14]): 100
Plant response rating, Blackgrass [1, 11]: 50
Plant response rating, Blackgrass [1, 12]: 70
Plant response rating, Blackgrass [1, 13]: 70
Plant response rating, Blackgrass [1, 14]: 80
Plant response rating, Oat, Wild (wild oat (Avena fatua); [11]): 40
Plant response rating, Oat, Wild (wild oat (Avena fatua); [12]): 55
Plant response rating, Oat, Wild (wild oat (Avena fatua); [13]): 60
Plant response rating, Oat, Wild (wild oat (Avena fatua); [14]): 90
Plant response rating, Bromegrass, Downy [2, 11]: 30
Plant response rating, Bromegrass, Downy [2, 12]: 45
Plant response rating, Bromegrass, Downy [2, 13]: 90
Plant response rating, Bromegrass, Downy [2, 14]: 95
Plant response rating, Surinam Grass [3, 11]: 85
Plant response rating, Surinam Grass [3, 12]: 98
Plant response rating, Surinam Grass [3, 13]: 100
Plant response rating, Surinam Grass [3, 14]: 100
Plant response rating, Pigweed [4, 11]: 80
Plant response rating, Pigweed [4, 12]: 98
Plant response rating, Pigweed [4, 13]: 100
Plant response rating, Pigweed [4, 14]: 100
Plant response rating, Ryegrass, Italian [5, 11]: 50
Plant response rating, Ryegrass, Italian [5, 12]: 50
Plant response rating, Ryegrass, Italian [5, 13]: 60
Plant response rating, Ryegrass, Italian [5, 14]: 60
Plant response rating, Morningglory [6, 11]: 85
Plant response rating, Morningglory [6, 12]: 95
Plant response rating, Morningglory [6, 13]: 100
Plant response rating, Morningglory [6, 14]: 100
Plant response rating, Foxtail, Giant [7, 11]: 98
Plant response rating, Foxtail, Giant [7, 12]: 98
Plant response rating, Foxtail, Giant [7, 13]: 98
Plant response rating, Foxtail, Giant [7, 14]: 100
Plant response rating, Canarygrass [8, 15]: 30
Plant response rating, Canarygrass [8, 16]: 40
Plant response rating, Canarygrass [8, 17]: 50
Plant response rating, Canarygrass [8, 18]: 50
Plant response rating, Windgrass [9, 15]: 60
Plant response rating, Windgrass [9, 16]: 90
Plant response rating, Windgrass [9, 17]: 98
Plant response rating, Windgrass [9, 18]: 100
Plant response rating, Chickweed [10, 15]: 90
Plant response rating, Chickweed [10, 16]: 98
Plant response rating, Chickweed [10, 17]: 100
Plant response rating, Chickweed [10, 18]: 100
